In paper PMC8815882, “Screening the pandemic response box identified benzimidazole carbamates, Olorofim and ravuconazole as promising drug candidates for the treatment of eumycetoma” (PLoS Neglected Tropical Diseases, 2022):
pIC50: −log10 of the molar value. Like-named read-outs stand apart in the source and are kept apart here.

Assays:
[1] = system: M. mycetomatis genome strain MM55; test: CLSI M38-A2 based in vitro susceptibility screening (XTT or resazurin), growth at fixed concentration; assay type: cell-based, Madurella mycetomatis; settings: Madurella mycetomatis; for Percent fungal survival at 100 µM: read-out: Percentage survival at 100um, 100 uM A (second replicate column)
[2] = system: M. mycetomatis MM55; test: IC50 determination, 2-fold dilution series 16 to 0.03125 μM; assay type: cell-based, Madurella mycetomatis; settings: for pIC50 / IC90: Madurella mycetomatis
[3] = mean of three, M. mycetomatis MM55, read-out: Percentage survival at 25um, 25 uM mean
[4] = replicate A, M. mycetomatis MM55, read-out: Percentage survival at 25um, 25 um A
[5] = replicate B, M. mycetomatis MM55, read-out: Percentage survival at 25um, 25 uM B
[6] = replicate C, M. mycetomatis MM55, read-out: Percentage survival at 25um, 25 uM C
[7] = mean of three, M. mycetomatis MM55, read-out: Percentage survival at 100um, 100 uM mean
[8] = replicate 1, M. mycetomatis MM55, read-out: Percentage survival at 100um, 100 uM A (first replicate column)
[9] = replicate 2, M. mycetomatis MM55
[10] = replicate 3, M. mycetomatis MM55, read-out: Percentage survival at 100um, 100 uM A (third replicate column)
[11] = MM55, replicate 1, read-out: IC50 1 um
[12] = MM55, replicate 1, read-out: IC90 1 um
[13] = MM55, replicate 2, read-out: IC50 2 um
[14] = MM55, replicate 2, read-out: IC90 2 um
[15] = MM55, replicate 3, read-out: IC50 3 um
[16] = MM55, replicate 3, read-out: IC90 3 um
[17] = mean of three replicates, read-out: Percentage survival at 25um, 25 uM mean
[18] = replicate A, read-out: Percentage survival at 25um, 25 um A
[19] = replicate B, read-out: Percentage survival at 25um, 25 uM B
[20] = replicate C, read-out: Percentage survival at 25um, 25 uM C
[21] = mean of three replicates, read-out: Percentage survival at 100um, 100 uM mean
[22] = replicate 1, read-out: Percentage survival at 100um, 100 uM A (first replicate column)
[23] = replicate 3, read-out: Percentage survival at 100um, 100 uM A (third replicate column)
[24] = MM55, mean of three replicates, read-out: IC50 mean
[25] = MM55, mean of three replicates, read-out: IC90 mean
[26] = MM55, mean of replicates, read-out: IC50 mean

| SMILES | pIC50 [2, 11] | IC90 [2, 12] | pIC50 [2, 13] | IC90 [2, 14] | pIC50 [2, 15] | IC90 [2, 16] | activity at 25 µM [1, 17] | activity at 25 µM [1, 18] | activity at 25 µM [1, 19] | activity at 25 µM [1, 20] | activity at 100 µM [1, 21] | activity at 100 µM [1, 22] | Percent fungal survival at 100 µM ([1]; replicate 2) | activity at 100 µM [1, 23] | Drug static or cidal [2] | pIC50 [2, 24] | IC90 [2, 25] | other results |
| --- | --- | --- | --- | --- | --- | --- | --- | --- | --- | --- | --- | --- | --- | --- | --- | --- | --- | --- |
| CC(C)=CCC/C(C)=C/CNCCNC1C2CC3CC(C2)CC1C3 (stereo not shown) [MMV687273] | 4.62 | > 25 µM | 4.84 | 22.9 µM | < 4.60 | > 25 µM | – | – | – | – | – | – | – | – | – | – | – | activity at 25 µM [1, 3]: 1.12%; activity at 25 µM [1, 4]: -2.04%; activity at 25 µM [1, 5]: 4.77%; activity at 25 µM [1, 6]: 0.619%; activity at 100 µM [1, 7]: 6.61%; activity at 100 µM [1, 8]: 4.04%; Percent fungal survival at 100 µM [1, 9]: 15.3%; activity at 100 µM [1, 10]: 0.477%; Drug static or cidal ([2]; M. mycetomatis): Cidal |
| Cc1nc2ccc(Oc3ccccc3)cc2c2c1CCN2CCc1ccccc1 [MMV1634399] | 4.85 | 22.3 µM | 5.01 | 22.7 µM | 4.95 | 21 µM | 3.88% | -3.19% | -1.6% | 16.4% | 0.985% | 1.91% | -0.867% | 1.92% | Cidal | 4.93 | 22 µM | – |
| Oc1c(C(Nc2ccccn2)c2ccccc2)ccc2cccnc12 (stereo not shown) [MMV565773] | 4.78 | 24.2 µM | 4.80 | 24.9 µM | 4.78 | 24.4 µM | 15.4% | 9.67% | 6.46% | 30.1% | 11.7% | 9.08% | 8.24% | 17.8% | Cidal | 4.79 | 24.5 µM | – |
| COc1cc(NS(=O)(=O)c2ccc(C)cc2)c2ncccc2c1 [MMV098836] | < 4.60 | – | < 4.60 | – | < 4.60 | – | – | – | – | – | – | – | – | – | Static | – | – | activity at 25 µM ([1]; mean of replicates, MM55, read-out: Percentage survival at 25um, 25 uM mean): 6.7%; activity at 25 µM ([1]; replicate A, MM55, read-out: Percentage survival at 25um, 25 um A): 6.32%; activity at 25 µM ([1]; replicate B, MM55, read-out: Percentage survival at 25um, 25 uM B): -0.482%; activity at 25 µM ([1]; replicate C, MM55, read-out: Percentage survival at 25um, 25 uM C): 14.3%; activity at 100 µM ([1]; mean of replicates, MM55, read-out: Percentage survival at 100um, 100 uM mean): 6.45%; activity at 100 µM ([1]; replicate 1, MM55, read-out: Percentage survival at 100um, 100 uM A): 4.22%; activity at 100 µM ([1]; replicate 2, MM55, read-out: Percentage survival at 100um, 100 uM A): 0.942%; activity at 100 µM ([1]; replicate 3, MM55, read-out: Percentage survival at 100um, 100 uM A): 14.2%; pIC50 [2, 26]: < 4.60; IC90 ([2]; MM55, IC90, mean of replicates, read-out: IC90 mean): > 25 µM; IC90 ([2]; MM55, IC90, replicate 1, read-out: IC90 1 um): > 25 µM; IC90 ([2]; MM55, IC90, replicate 2, read-out: IC90 2 um): > 25 µM; IC90 ([2]; MM55, IC90, replicate 3, read-out: IC90 3 um): > 25 µM |
| N#Cc1c(F)c(Cl)c(NCc2ccccc2)c(C#N)c1F [MMV1582496] | 4.88 | 23.1 µM | 4.80 | 23.6 µM | 4.78 | 24.2 µM | 4.98% | 2% | -0.68% | 13.6% | 2.09% | -0.676% | 1.24% | 5.72% | Static | 4.82 | 23.6 µM | – |
| Nc1nnnn1CCOc1c2[nH]c3ccc(Cl)cc3c2cc2c1[nH]c1ccc(Cl)cc12 [MMV1633966] | 5.37 | > 25 µM | 4.78 | 24 µM | 4.91 | 23.5 µM | – | – | – | – | – | – | – | – | – | – | – | activity at 25 µM [1, 3]: 3.05%; activity at 25 µM [1, 4]: 1.67%; activity at 25 µM [1, 5]: 3.75%; activity at 25 µM [1, 6]: 3.74%; activity at 100 µM [1, 7]: 3.34%; activity at 100 µM [1, 8]: 3.63%; Percent fungal survival at 100 µM [1, 9]: 1.28%; activity at 100 µM [1, 10]: 5.11%; Drug static or cidal ([2]; M. mycetomatis): Cidal; pIC50 [2, 26]: 4.96 |
| CCCCOC(=O)Nc1cc2nc(C3CCCCC3)[nH]c2cc1N1CCCC1 [MMV687730] | – | – | – | – | – | – | – | – | – | – | – | – | – | – | – | – | – | pIC50 ([2]; MM55, Table 3, benzimidazole carbamates, M. mycetomatis, read-out: IC50): 4.94 |
